Measured values from patent US20260158102A1, “CYCLIC PEPTIDE DERIVATIVE COMPOSITION FOR TREATING OR PREVENTING NEUROPATHIC PAIN AND/OR INFLAMMATORY PAIN” (DKS Co. Ltd., priority 2022, published 2026).

Tests used:
[1] = tested on: STZ-induced diabetic rats; test: von Frey test in rat STZ-induced diabetes model; assay type: in vivo; conditions: for 50% withdrawal threshold by von Frey test: mean ± SE, n=10
Experimental: The activity of the compound of the present disclosure was evaluated according to the following procedure.
(§1) Compound 9 (50 mg/mL) was diluted with water for injection to obtain a 1 mg/mL administration specimen. For the specimens to be administered at 0.1 mg/mL and 0.01 mg/mL, the specimen to be administered at 1 mg/mL was diluted stepwise with water for injection. Each administration specimen was divided into PP disposable tubes every day and stored in a storehouse (freezer: MDF-MU339H-PJ, PHC Corporation) under the condition of freezing (−30° C. to −20° C., measured value: −26.4 to −24.5° C.). Preparation was performed on the day before the start of administration.
(§2) Water for injection was added to and dissolved in Pregabalin taken out from the capsule to obtain 2 mg/mL. It was prepared before use.
(§3) • Animal species: rat (SPF) • Strain: Crl: CD (SD) • Date of animal acquisition, gender, age in weeks, number of animals acquired, and weight range after 1 day of acquisition • First and second courses: Apr. 6, 2022, male, 7 weeks old, 35 animals, 217 to 237 g • Third and fourth courses: Apr. 13, 2022, male, 7 weeks old, 35 animals, 216 to 235 g • Source: […].
Among the animals having a 50% withdrawal threshold of 8 g or more in the von Frey test measured during the preliminary breeding period, two animals from young animals with animal numbers were assigned to non-diabetes-induced animals, and the remaining animals were assigned to diabetes-induced animals.
Among the diabetes-induced animals, animals having a blood glucose level of 300 mg/dL or less were excluded from the grouping subjects, and were grouped using a computer program (IBUKI, Nihon Bioresearch Center, Inc.) so that the body weight and the average blood glucose level of each group were approximately equal. That is, the animals for the first and second courses and the third and fourth courses were grouped into one non-diabetes animal for Group 1, and 5 […] animals for Groups 2 to 6. Note that the grouping was performed so that there were 4 examples in Group 1 and 10 examples in each of Groups 2 to 6.
• Administration method: Using a syringe (Terumo Corporation) equipped with a 25 G winged injection needle (Terumo Corporation), tail vein administration was performed. Note that a 0.75 mmol/L CAB solution was administered to a non-diabetes-induced control group.
(§4) • Dose volume: calculated at 2 mL/kg based on the body weight on the day of administration. • Number of times of administration: once • Day of administration: 7 days before the day of starting administration of the test substance.
• Administration method: Using a syringe (Terumo Corporation) equipped with a 25 G winged injection needle (Terumo Corporation), tail vein administration was performed. Note that physiological saline was administered to the non-diabetes control group and the diabetes control group.
(§5) • Dose volume: calculated at 1 mL/kg based on the body weight on the day of administration. • Number of times of administration: 9 times • Interval of administration: once every 3 days (evaluation was performed on the day after administration) • Day of starting administration: day 8 of STZ administration (day of STZ administration is counted as day 1).
• Administration method: Using a polypropylene disposable syringe (Terumo Corporation) equipped with a metal oral zonde for a rat (Fuchigami kikai Ltd.), forced oral administration was performed.
• Dose volume: calculated at 10 mL/kg based on the body weight on the day of administration. • Number of times of administration: Administration was performed once on the day of evaluation of neuropathic pain, twice in total, and on the other days of administration, a vehicle for a control substance (water for injection) was orally administered. […]

[2] = Observation of general condition in rat STZ-induced diabetes model; assay type: in vivo; conditions: 20 mg/kg oral, number of animals, 10 per group
Experimental: as §1, §2, §3, §4, §5
• Dose volume: calculated at 10 mL/kg based on the body weight on the day of administration. • Number of times of administration: Administration was performed once on the day of evaluation of neuropathic pain, twice in total, and on the other days of administration, a vehicle for a control substance (water for injection) was orally administered.
• Observation of general condition • Observation was performed once a day.

CC(C)C[C@H](CN)CC(=O)O [Pregabalin, reference compound]
50% withdrawal threshold by von Frey test ([1]; 20 mg/kg oral group, Pre: before STZ administration): 12.7 ± 0.7 g
50% withdrawal threshold by von Frey test ([1]; 20 mg/kg oral, 3 hours after administration, day 14 of STZ administration): 14.5 ± 0.5 g
50% withdrawal threshold by von Frey test ([1]; 20 mg/kg oral, 3 hours after administration, day 28 of STZ administration): 14.1 ± 0.7 g
change in the 50% withdrawal threshold (von Frey test) ([1]; 20 mg/kg oral, both 14 days and 28 days after STZ administration, as compared with the diabetes control group): significant increase
general condition ([2]; day 1 of STZ administration): 10
general condition ([2]; day 2 of STZ administration): 10
general condition ([2]; day 3 of STZ administration): 10
general condition ([2]; day 4 of STZ administration): 10
general condition ([2]; day 5 of STZ administration): 10
general condition ([2]; day 6 of STZ administration): 10
general condition ([2]; day 7 of STZ administration): 10
general condition ([2]; day 8 of STZ administration): 10
general condition ([2]; day 9 of STZ administration): 10
general condition ([2]; day 10 of STZ administration): 10
general condition ([2]; day 11 of STZ administration): 10
general condition ([2]; day 12 of STZ administration): 10
general condition ([2]; day 13 of STZ administration): 10
general condition ([2]; day 14 of STZ administration): 10
general condition ([2]; day 15 of STZ administration): 10
general condition ([2]; day 16 of STZ administration): 10
general condition ([2]; day 17 of STZ administration): 10
general condition ([2]; day 18 of STZ administration): 10
general condition ([2]; day 19 of STZ administration): 10
general condition ([2]; day 20 of STZ administration): 10
general condition ([2]; day 21 of STZ administration): 10
general condition ([2]; day 22 of STZ administration): 10
general condition ([2]; day 23 of STZ administration): 10
general condition ([2]; day 24 of STZ administration): 10
general condition ([2]; day 25 of STZ administration): 10
general condition ([2]; day 26 of STZ administration): 10
general condition ([2]; day 27 of STZ administration): 10
general condition ([2]; day 28 of STZ administration): 10
general condition ([2]; day 29 of STZ administration): 10
general condition ([2]; day 30 of STZ administration): 10
general condition ([2]; day 31 of STZ administration): 10
general condition ([2]; day 32 of STZ administration): 10
general condition ([2]; day 33 of STZ administration): 10
general condition ([2]; day 34 of STZ administration): 10
general condition ([2]; day 35 of STZ administration): 10
